Results published in patent US8168592B2 (Amgen Inc., priority 2005, dated 2012).
Read-outs that look alike come from different tables or passages of the source. Square brackets hold non-standard residues; d marks the D form. Peptide text beside a SMILES is read from it. hArg = N=C(N)NCCCC[C@H](N)C(=O)O; Cit = NC(=O)NCCC[C@H](N)C(=O)O

Target: T1, CGRP1 receptor (Homo sapiens, UniProt O60894+Q16602)
T1 construct: SK-N-MC cells express CRLR and RAMP1, which form CGRP1 receptor; endogenous in cells; host or cells: SK-N-MC human neuroblastoma cells
T1 sequence (Q16602 23-461): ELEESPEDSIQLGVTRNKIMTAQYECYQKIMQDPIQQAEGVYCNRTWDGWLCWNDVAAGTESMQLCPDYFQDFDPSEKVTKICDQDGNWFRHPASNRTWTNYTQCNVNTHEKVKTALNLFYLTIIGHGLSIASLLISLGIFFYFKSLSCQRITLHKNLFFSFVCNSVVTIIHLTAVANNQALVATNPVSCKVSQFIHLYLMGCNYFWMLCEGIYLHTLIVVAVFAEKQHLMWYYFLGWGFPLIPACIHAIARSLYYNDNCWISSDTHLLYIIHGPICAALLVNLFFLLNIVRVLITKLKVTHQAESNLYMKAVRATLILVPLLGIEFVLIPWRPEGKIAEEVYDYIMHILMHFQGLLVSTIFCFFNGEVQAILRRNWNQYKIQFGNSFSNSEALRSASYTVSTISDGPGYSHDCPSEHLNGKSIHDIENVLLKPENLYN
T1 sequence (O60894 27-148): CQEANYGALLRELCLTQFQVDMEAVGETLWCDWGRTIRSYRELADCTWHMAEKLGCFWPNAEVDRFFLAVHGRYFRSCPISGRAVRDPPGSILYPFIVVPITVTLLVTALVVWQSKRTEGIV
Assay: in vitro CGRP1 receptor mediated cAMP assay in SK-N-MC cells
Format: cell-based
Procedure, shortened: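 Intracellular cAMP served as the Gs-coupled CGRP1 readout in endogenously expressing SK-N-MC cells. After a 15-minute room-temperature step in plasma-free medium, cell lysates (30 minutes, 37° C) went into a competitive ELISA with a cAMP-AP conjugate and anti-cAMP antibody for 1 hour, then a 30-minute substrate enhancer step before reading.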

[1] = Table 2C, unconjugated peptide, read-out: Peptide IC50

Row | IC50 [1] | Compound | other results
1 | 3 nM | CC(=O)N[C@@H](Cc1c[nH]c2ccccc12)C(=O)N[C@H](C(=O)N[C@H](C(=O)N[C@@H](Cc1c[nH]cn1)C(=O)N[C@@H](CCCNC(N)=O)C(=O)N[C@@H](CC(C)C)C(=O)N[C@@H](C)C(=O)NCC(=O)N[C@@H](CC(C)C)C(=O)N[C@@H](CC(C)C)C(=O)N[C@@H](CO)C(=O)N[C@@H](CCCNC(=N)N)C(=O)N1CCC[C@H]1C(=O)NCC(=O)NCC(=O)N[C@H](C(=O)N[C@H](C(=O)N[C@@H](CCCNC(=N)N)C(=O)N[C@@H](CCCCN)C(=O)N[C@@H](CC(N)=O)C(=O)N[C@@H](Cc1ccccc1)C(=O)N[C@H](C(=O)N1CCC[C@H]1C(=O)N[C@H](C(=O)N[C@@H](CC(=O)O)C(=O)N[C@H](C(=O)NCC(=O)N1CCC[C@H]1C(=O)N[C@@H](Cc1ccccc1)C(=O)N[C@@H](C)C(=O)N[C@@H](Cc1ccccc1)C(N)=O)C(C)C)[C@@H](C)O)C(C)C)C(C)C)C(C)C)[C@@H](C)O)C(C)C [compound 868] (Ac-WVTH[Cit]LAGLLSRPGGVVRKNFVPTDVGPFAF-NH2) | 
2 | 2.31 nM | CC[C@H](C)[C@H](NC(=O)[C@H](CCCNC(N)=O)NC(=O)[C@H](Cc1c[nH]cn1)NC(=O)[C@@H](NC(=O)[C@@H](NC(=O)[C@H](Cc1c[nH]c2ccccc12)NC(C)=O)C(C)C)[C@@H](C)O)C(=O)N[C@@H](CC(C)C)C(=O)N[C@@H](C)C(=O)NCC(=O)N[C@@H](CC(C)C)C(=O)N[C@@H](CC(C)C)C(=O)N1CCC[C@H]1C(=O)N[C@@H](CCCNC(=N)N)C(=O)N[C@@H](CO)C(=O)NCC(=O)NCC(=O)N[C@H](C(=O)N[C@H](C(=O)N[C@@H](CCCNC(=N)N)C(=O)N[C@@H](CCCCN)C(=O)N[C@@H](CC(N)=O)C(=O)N[C@@H](Cc1ccccc1)C(=O)N[C@H](C(=O)N1CCC[C@H]1C(=O)N[C@H](C(=O)N[C@@H](CC(=O)O)C(=O)N[C@H](C(=O)NCC(=O)N1CCC[C@H]1C(=O)N[C@@H](Cc1ccccc1)C(=O)N[C@@H](C)C(=O)N[C@@H](Cc1ccccc1)C(N)=O)C(C)C)[C@@H](C)O)C(C)C)C(C)C)C(C)C [compound 867] (Ac-WVTH[Cit]ILAGLLPRSGGVVRKNFVPTDVGPFAF-NH2) | 
3 |  | CC(=O)N[C@@H](Cc1c[nH]c2ccccc12)C(=O)N[C@H](C(=O)N[C@H](C(=O)N[C@@H](Cc1c[nH]cn1)C(=O)N[C@@H](CCCNC(N)=O)C(=O)N[C@@H](CC(C)C)C(=O)N[C@@H](C)C(=O)NCC(=O)N[C@@H](CC(C)C)C(=O)N[C@@H](CC(C)C)C(=O)N[C@@H](CO)C(=O)N[C@@H](CCCNC(N)=O)C(=O)N[C@@H](CO)C(=O)NCC(=O)NCC(=O)N[C@H](C(=O)N[C@H](C(=O)N[C@@H](CCCCNC(=N)N)C(=O)N[C@@H](CCCCN)C(=O)N[C@@H](CC(N)=O)C(=O)N[C@@H](Cc1ccccc1)C(=O)N[C@H](C(=O)N1CCC[C@H]1C(=O)N[C@H](C(=O)N[C@@H](CC(=O)O)C(=O)N[C@H](C(=O)NCC(=O)N1CCC[C@H]1C(N)=O)C(C)C)[C@@H](C)O)C(C)C)C(C)C)C(C)C)[C@@H](C)O)C(C)C [compound 656] (Ac-WVTH[Cit]LAGLLS[Cit]SGGVV[hArg]KNFVPTDVGP-NH2) | IC50 (Table 2A, read-out: IC50): > 1000 nM
4 |  | SEQ ID NO:27 (WVTHXLAGLLSRSGGVVRKNFVPTDVGPFAF; CGRP peptide; MOD_RES (1)..(1): …ON; MISC_FEATURE (5)..(5): xaa=citrulline; MOD_RES (31)..(31): AMIDATION) | antagonist activity in cAMP assay, in words: well tolerated
